Data set [1] deals with BAF3 Cells with Variant 3 EML4-ALK^G1202R (Homo sapiens, UniProt Q9UM73, G1202R, cells depend on it). The conditions noted are these: read-out: BAF3 Cells with Variant 3 EML4-ALK^G1202R (IC50).
Experimental: (§1) The 3-day viability assay was performed by seeding the cells at 750 cells per 50 μL volume of complete medium per well. Following the seeding of the cells, the plate was briefly spun down to let the cells settle at the bottom of the plate before treating with compounds at a dose range using d300e. Once the cells were treated, the cells were incubated at 37° C. with 5% CO2 for 72 hours. At the end of the treatment duration, the plate was brought to root temperature to equilibrate before adding 12.5 μL of the CellTiter-Glo® reagent per well. The plate was shaken using a plate shaken at 50 rpm for 5 minutes at room temperature and then incubated for 5 minutes in the dark before the plates were read using a luminescence based plate reader.
(§2) IC50 values were determined using a non-linear regression curve fit in GraphPad Prism (Version 9.1.0).
Data set [2] deals with BAF3 Cells with Variant 3 EML4-ALK^WT (Homo sapiens, UniProt Q9UM73). The settings on record: read-out: BAF3 Cells with Variant 3 EML4-ALK^WT (IC50); 72 hours, CellTiter-Glo. (In ATP-based viability assays light output follows the ATP content of the culture.)
Chain of BAF3 Cells with Variant 3 EML4-ALK^WT (Q9UM73 whole entry, change not shown): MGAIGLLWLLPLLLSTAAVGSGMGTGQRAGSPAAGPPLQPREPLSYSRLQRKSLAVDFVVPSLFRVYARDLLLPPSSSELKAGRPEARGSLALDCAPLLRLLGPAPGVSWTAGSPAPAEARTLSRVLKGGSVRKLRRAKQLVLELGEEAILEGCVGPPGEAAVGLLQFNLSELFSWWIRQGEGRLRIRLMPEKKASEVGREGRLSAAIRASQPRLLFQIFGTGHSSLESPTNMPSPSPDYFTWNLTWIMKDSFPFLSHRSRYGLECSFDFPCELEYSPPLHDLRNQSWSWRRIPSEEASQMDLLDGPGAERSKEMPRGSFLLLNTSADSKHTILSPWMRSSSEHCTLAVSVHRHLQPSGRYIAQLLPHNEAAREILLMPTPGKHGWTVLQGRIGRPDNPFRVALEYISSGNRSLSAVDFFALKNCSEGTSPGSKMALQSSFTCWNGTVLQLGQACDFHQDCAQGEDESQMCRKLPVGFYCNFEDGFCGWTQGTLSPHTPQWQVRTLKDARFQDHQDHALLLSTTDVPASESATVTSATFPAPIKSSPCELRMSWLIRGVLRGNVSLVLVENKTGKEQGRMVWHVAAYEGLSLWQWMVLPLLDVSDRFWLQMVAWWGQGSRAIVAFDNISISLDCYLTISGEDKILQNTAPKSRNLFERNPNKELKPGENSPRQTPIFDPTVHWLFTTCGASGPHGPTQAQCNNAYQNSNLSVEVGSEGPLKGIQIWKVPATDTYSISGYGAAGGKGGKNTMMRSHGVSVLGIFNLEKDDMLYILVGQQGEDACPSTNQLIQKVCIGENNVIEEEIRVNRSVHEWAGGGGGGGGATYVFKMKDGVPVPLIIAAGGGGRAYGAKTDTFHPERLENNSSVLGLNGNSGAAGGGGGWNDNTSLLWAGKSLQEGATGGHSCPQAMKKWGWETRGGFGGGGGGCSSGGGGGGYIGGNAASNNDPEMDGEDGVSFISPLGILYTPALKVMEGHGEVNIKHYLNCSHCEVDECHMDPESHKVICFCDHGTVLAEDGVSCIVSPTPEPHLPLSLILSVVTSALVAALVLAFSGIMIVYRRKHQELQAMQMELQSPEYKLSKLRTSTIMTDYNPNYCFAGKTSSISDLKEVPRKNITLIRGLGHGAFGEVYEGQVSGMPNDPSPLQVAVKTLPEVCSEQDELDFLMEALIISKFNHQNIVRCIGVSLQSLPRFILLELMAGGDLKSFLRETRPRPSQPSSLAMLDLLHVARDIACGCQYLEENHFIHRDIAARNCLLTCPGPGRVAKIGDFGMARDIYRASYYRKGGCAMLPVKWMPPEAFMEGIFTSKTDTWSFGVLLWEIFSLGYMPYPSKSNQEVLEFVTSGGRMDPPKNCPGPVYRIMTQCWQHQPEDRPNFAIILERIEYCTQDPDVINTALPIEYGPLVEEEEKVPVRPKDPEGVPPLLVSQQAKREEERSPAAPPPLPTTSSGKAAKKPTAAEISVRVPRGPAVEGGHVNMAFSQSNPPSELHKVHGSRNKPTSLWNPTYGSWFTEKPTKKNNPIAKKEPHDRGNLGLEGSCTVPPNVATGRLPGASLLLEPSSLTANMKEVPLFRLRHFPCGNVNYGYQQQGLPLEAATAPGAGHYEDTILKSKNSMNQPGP
Experimental: as §1, §2
Data set [3] has as its target T1, FER in HCT116 cells (Homo sapiens, UniProt P16591).
T1 construct: endogenous in cells; host or cells: HCT116
The data set can be described thus: Western blotting for FER degradation. It is filed as cell-based. The conditions noted are these: various concentrations, 24 hours. How it is done:
HCT116 cells were treated with compound 1 or a FER kinase inhibitor E260 (Elkis et al., Nat. Commun. 8:940 (2017)) at various concentrations for 24 hours, along with DMSO (not shown) and ethanol as controls (FIG. 2). 18 μg of protein was loaded in each lane and Western blotting was performed for FER, CRBN, and loading control ACTIN.

The subject of data set [4] is proteins in MOLT4 cells. The data set can be described thus: Quantitative mass spectrometry proteomics, relative protein abundance. In kind it is cell-based. The settings on record: 1 μM, 5 hours, cut-offs 2-fold change, p value 0.001. How it is done: Relative fold-change (FC) abundance of proteins in MOLT4 cells treated with compound 1 (1 μM) for 5 hours was determined using quantitative mass spectrometry proteomics (protocol was published previously: Donovan et al., Cell 183:1714-1731 (2020)). Dotted lines signify a 2-fold change in protein levels and a p value of 0.001. […] FER is a cytoplasmic tyrosine kinase and its kinase function […] for STAT3 phosphorylation in tumor cell transformation and growth, but siRNA knock down of FER leads to decreased phospho-STAT3 and reduced STAT3 activation and inhibition of tumor growth in vivo (Lennartsson et al., J. Biol. Chem. 288:15736-15744 (2013)). STAT3 activation plays a key role in several cancers, including colon cancer (Gargalionis et al., Biomedicines 9:1016 (2021)). Therefore, inhibition of STAT3 signaling through depletion of FER using a targeted protein degrader is useful in the treatment of such cancers.

A short description of data set [5]: Mouse oral PK study. In kind it is in vivo, male C57BI/6 mice. The conditions noted are these: for Vd: C57BI/6, mouse, iv, 2 mg/kg. How it is done:
Standard oral PK studies were conducted using male C57BI/6 mice obtained from BioDuro Shanghai. […] Plasma concentrations of compound 1 reported at each of the 9 time points (5 min, 15 min, 30 min, 1 h, 2 h, 4 h, 6 h, 8 h and 24 h post dosing) are the average values from 3 test animals.

For data set [6], the target named is HiBiT G1202R Variant 1 EML4-ALK (Homo sapiens, UniProt Q9UM73, G1202R). It is filed as cell-based. The conditions noted are these: Ba/F3 cells, 0.0003-2 μM, 4 hours; for DC50: read-out: BAF3 Cellular Degradation - HiBiT G1202R Variant 1 EML4-ALK: DC50; for Dmax: BaF3, maximal level of degradation, read-out: BAF3 Cellular Degradation - HiBiT G1202R Variant 1 EML4-ALK: Dmax. For orientation: HiBiT is a short tag that completes a luciferase, so light tracks the accessible tagged protein.
Chain of HiBiT G1202R Variant 1 EML4-ALK (Q9UM73 with tags, fused parts or gaps G1202R): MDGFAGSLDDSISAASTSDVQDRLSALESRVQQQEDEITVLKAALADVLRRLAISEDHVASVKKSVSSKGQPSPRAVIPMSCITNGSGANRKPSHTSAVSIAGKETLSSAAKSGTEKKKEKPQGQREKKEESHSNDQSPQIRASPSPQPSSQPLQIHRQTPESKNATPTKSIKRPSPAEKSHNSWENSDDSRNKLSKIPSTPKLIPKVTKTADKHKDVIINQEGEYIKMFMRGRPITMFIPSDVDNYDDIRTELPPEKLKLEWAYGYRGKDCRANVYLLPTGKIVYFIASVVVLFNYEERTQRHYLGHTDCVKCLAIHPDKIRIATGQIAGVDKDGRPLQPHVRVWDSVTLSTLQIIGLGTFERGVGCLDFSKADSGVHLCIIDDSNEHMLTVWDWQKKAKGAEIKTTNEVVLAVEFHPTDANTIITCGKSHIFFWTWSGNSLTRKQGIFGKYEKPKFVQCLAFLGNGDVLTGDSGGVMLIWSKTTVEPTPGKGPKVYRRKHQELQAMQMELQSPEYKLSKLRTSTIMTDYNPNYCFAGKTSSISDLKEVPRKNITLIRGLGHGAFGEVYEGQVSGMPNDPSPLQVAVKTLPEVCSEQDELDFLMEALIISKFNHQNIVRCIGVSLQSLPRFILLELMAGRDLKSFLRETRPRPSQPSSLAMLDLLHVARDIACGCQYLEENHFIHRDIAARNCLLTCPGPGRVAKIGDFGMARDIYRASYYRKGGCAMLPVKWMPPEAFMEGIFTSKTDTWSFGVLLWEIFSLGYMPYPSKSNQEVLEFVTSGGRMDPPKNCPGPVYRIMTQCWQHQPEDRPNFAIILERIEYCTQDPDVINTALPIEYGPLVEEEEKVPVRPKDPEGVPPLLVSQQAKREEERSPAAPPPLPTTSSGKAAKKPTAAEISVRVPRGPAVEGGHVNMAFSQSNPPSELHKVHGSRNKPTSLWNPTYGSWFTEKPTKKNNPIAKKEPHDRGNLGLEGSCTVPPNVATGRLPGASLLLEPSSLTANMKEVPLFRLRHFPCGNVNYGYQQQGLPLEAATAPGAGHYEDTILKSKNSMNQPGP
Chain of HiBiT G1202R Variant 1 EML4-ALK (Q96SW2 whole entry partner): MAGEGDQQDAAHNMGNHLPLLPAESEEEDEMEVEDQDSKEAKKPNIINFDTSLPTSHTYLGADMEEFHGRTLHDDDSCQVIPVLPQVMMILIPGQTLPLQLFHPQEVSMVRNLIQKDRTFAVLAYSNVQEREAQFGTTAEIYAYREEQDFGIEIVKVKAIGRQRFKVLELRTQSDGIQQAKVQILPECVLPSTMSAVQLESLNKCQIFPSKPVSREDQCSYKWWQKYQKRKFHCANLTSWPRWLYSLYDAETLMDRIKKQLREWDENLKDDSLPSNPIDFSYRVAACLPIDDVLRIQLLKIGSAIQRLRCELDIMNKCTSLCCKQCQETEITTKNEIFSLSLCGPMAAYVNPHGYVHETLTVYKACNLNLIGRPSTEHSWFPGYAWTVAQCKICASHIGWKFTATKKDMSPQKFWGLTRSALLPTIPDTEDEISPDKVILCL
Chain of HiBiT G1202R Variant 1 EML4-ALK (Q3U1J4 whole entry partner): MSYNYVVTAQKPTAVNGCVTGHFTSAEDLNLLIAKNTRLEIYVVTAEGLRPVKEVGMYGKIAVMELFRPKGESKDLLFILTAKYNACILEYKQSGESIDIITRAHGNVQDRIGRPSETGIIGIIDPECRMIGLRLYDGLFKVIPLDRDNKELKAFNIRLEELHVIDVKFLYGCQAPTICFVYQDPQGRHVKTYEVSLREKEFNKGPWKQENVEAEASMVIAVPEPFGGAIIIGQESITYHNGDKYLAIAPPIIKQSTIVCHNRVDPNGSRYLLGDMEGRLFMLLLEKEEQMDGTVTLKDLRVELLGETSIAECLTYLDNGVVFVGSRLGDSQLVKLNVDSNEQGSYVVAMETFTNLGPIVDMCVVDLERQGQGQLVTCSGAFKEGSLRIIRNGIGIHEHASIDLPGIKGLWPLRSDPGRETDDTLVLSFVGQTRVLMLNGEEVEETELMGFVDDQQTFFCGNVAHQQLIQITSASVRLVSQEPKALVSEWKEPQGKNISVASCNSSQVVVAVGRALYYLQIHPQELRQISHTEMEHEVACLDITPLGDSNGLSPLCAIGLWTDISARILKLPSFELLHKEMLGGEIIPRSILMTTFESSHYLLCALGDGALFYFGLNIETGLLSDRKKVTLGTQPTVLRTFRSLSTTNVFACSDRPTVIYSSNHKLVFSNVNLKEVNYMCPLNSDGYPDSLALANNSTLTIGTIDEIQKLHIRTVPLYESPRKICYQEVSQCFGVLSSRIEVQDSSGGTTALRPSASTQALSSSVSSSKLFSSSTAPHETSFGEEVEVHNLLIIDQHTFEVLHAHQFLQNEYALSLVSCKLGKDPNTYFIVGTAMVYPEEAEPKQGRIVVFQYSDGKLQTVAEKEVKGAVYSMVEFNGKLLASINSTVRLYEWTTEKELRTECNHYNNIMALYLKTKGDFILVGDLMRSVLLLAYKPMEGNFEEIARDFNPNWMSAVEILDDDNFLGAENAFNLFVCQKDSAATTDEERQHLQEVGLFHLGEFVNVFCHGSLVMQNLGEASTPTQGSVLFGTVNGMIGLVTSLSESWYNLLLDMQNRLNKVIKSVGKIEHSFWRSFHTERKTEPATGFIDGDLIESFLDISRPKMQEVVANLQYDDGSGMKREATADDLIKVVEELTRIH

Where [7] appears, read: male, C57BI/6, 10 mg/kg, PO, single dose, plasma.
Where [8] appears, read: male, C57BI/6, IV, single 2 mg/kg, plasma.

The term AUC(0-inf) denotes the area under the concentration-time curve extrapolated to infinity. For orientation: AUC(0-t) means exposure summed from dosing to a finite time, without extrapolation to infinity. Read a low AUC(0-t) as less exposure. Broadly, the Cmax is the maximum level reached in the sampled fluid or tissue. As usually defined, the MRT inf is a mean duration of stay, worked out from the concentration-time curve. As a reminder, the Tmax is the time at which the peak concentration occurs. The half-life is the time in which the quantity being followed falls by half. Lower therefore signals fast loss. For orientation: DC50 means the concentration giving 50% degradation. A word on the Dmax: it is the greatest extent of degradation seen.

Read-outs that look alike come from different tables or passages of the source.

Chain of BAF3 Cells with Variant 3 EML4-ALK^G1202R (Q9UM73 whole entry G1202R): as the sequence (Q9UM73 whole entry, change not shown) above, with G1202R counted along it
T1 sequence (P16591 whole entry): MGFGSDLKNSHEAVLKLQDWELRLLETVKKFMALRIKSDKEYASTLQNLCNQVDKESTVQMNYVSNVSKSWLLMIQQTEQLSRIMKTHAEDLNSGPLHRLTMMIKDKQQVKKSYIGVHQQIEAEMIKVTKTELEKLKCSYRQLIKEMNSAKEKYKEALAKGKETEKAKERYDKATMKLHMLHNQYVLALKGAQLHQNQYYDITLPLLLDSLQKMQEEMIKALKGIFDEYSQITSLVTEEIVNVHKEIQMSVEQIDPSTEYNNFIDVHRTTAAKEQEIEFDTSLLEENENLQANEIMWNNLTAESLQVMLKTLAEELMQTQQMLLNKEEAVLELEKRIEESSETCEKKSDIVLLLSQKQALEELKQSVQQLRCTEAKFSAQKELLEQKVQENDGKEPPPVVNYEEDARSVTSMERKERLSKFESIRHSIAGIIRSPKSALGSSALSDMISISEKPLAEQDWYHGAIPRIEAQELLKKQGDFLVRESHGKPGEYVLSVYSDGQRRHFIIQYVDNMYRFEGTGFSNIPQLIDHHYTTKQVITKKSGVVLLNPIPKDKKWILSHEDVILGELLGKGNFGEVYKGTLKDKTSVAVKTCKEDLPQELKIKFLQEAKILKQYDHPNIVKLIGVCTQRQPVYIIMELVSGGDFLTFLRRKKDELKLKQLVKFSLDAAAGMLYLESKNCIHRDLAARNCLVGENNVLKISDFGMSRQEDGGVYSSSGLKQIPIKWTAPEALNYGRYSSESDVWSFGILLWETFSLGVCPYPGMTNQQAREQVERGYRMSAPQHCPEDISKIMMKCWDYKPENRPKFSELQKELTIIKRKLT

Take `COc1cc(N2CCC(N3CCN(C)CC3)CC2)ccc1Nc1ncc(Cl)c(Nc2ccccc2P(C)(C)=O)n1` [Brigatinib]: the GI50 in data set [1] (baf3 cells with variant 3 eml4-alk^g1202r) was 183 nM.

For `Cc1cc(Nc2ncc(Cl)c(Nc3ccccc3S(=O)(=O)C(C)C)n2)c(OC(C)C)cc1C1CCNCC1` [Ceritinib], the GI50 in data set [2] is 85 nM; in data set [1] (72 hours, CellTiter-Glo), 357 nM.

Regarding `COc1cc(C2CCN(CC3CN(c4ccc5c(c4)C(=O)N(C4CCC(=O)NC4=O)C5=O)C3)CC2)c(C)cc1Nc1ncc(Cl)c(Nc2ccccc2S(=O)(=O)C(C)C)n1` (stereo not drawn) [Compound 1, 5-{3-[(4-{4-[(5-chloro-4-{[2-(propane-2-sulfonyl)phenyl]amino}pyrimidin-2-yl)amino]-5-methoxy-2-methylphenyl}piperidin-1-yl)methyl]azetidin-1-yl}-2-(2,6-dioxopiperidin-3-yl)-2,3-dihydro-1H-isoindole-1,3-dione], the “Downregulation of FER (Western blot)” value in data set [3] is given as “significantly downregulated FER”. The “Relative fold-change abundance of proteins (downregulated proteins)” value in data set [4] is “downregulated PLK4, CAMK1D, FAK2, RSK1, ACK1 and FER”. Moreover, the AUCExtr in data set [5] (IV, single 2 mg/kg, plasma) was found to be 1.65%. For the same compound, the F in data set [5] (PO versus IV) is listed as 28.0%. Also, in data set [5] (PO, single dose, plasma), the AUCExtr worked out at 5.08% and the AUCInf/D is listed as 0.605 hr*kg*nM/nmol. In data set [5] (conclusion from Table 3), the “In vivo metabolic stability, plasma exposure and clearance (in words)” value is “good in vivo metabolic stability, plasma exposure, and slow clearance rate”. In data set [5] (setting [7]), this compound registered an area under the curve AUC(0-inf) of 7.08 µM·h, an AUC(0-t) of 6.73 µM·h, a Cmax of 658 nM and an MRT inf of 8.51 h. Besides, in data set [5] (setting [7]), the time to peak (Tmax) was determined as 1.67 h and the half-life was 5.37 h. Also, in data set [5] (setting [8]), the AUC(0-inf) was 5.05 µM·h, the AUC(0-t) was 4.97 µM·h, the C0 worked out at 2340 nM and the MRT inf stood at 4.95 h. Besides, in data set [5] (setting [8]), the clearance came out at 7.73 mL/min/kg and the half-life was 4.41 h. Moreover, the Vd in data set [5] (male, plasma, IV, single 2 mg/kg, plasma, read-out: Vss) turned out to be 2.29 L/kg. The Vd in data set [5] (male, plasma, IV, single 2 mg/kg, plasma, read-out: Vz) was 2.95 L/kg.

With `COc1cc(C2CCN(CCC3CN(c4ccc5c(c4)C(=O)N(C4CCC(=O)NC4=O)C5=O)C3)CC2)c(C)cc1Nc1ncc(Cl)c(Nc2ccccc2S(=O)(=O)C(C)C)n1` (stereo not drawn) [Compound 2], in data set [6], the DC50 came out at 10 nM and the Dmax stood at 76%.

For `COc1cc(C2CCN(C[C@H]3CCN(c4ccc5c(c4)C(=O)N(C4CCC(=O)NC4=O)C5=O)C3)CC2)c(C)cc1Nc1ncc(Cl)c(Nc2ccccc2S(=O)(=O)C(C)C)n1` (stereo partly drawn) [Compound 8, 5-[(3R)-3-[(4-{4-[(5-chloro-4-{[2-(propane-2-sulfonyl)phenyl]amino}pyrimidin-2-yl)amino]-5-methoxy-2-methylphenyl}piperidin-1-yl)methyl]pyrrolidin-1-yl]-2-(2,6-dioxopiperidin-3-yl)-2,3-dihydro-1H-isoindole-1,3-dione], the DC50 in data set [6] worked out at 124 nM.

`COc1cc(C2CCN(C[C@@H]3CCN(c4ccc5c(c4)C(=O)N(C4CCC(=O)NC4=O)C5=O)C3)CC2)c(C)cc1Nc1ncc(Cl)c(Nc2ccccc2S(=O)(=O)C(C)C)n1` (stereo partly drawn) [Compound 9]: in data set [6], the DC50 was 41 nM and the maximal degradation (Dmax) worked out at 86%.

In the case of `COc1cc(C2CCN(CC3CC4(C3)CN(c3ccc5c(c3)C(=O)N(C3CCC(=O)NC3=O)C5=O)C4)CC2)c(C)cc1Nc1ncc(Cl)c(Nc2ccccc2S(=O)(=O)C(C)C)n1` (stereo not drawn) [Compound 16, 5-(6-((4-(4-((5-chloro-4-((2-(isopropylsulfonyl)phenyl)amino)pyrimidin-2-yl)amino)-5-methoxy-2-methylphenyl)piperidin-1-yl)methyl)-2-azaspiro[3.3]heptan-2-yl)-2-(2,6-dioxopiperidin-3-yl)isoindoline-1,3-dione], in data set [6], the DC50 worked out at 79 nM.

Take `CNC(=O)c1ccccc1Nc1nc(Nc2cc(C)c(C3CCN(CC4CCN(c5ccc6c(c5)C(=O)N(C5CCC(=O)NC5=O)C6=O)CC4)CC3)cc2OC)ncc1C(F)(F)F` (stereo not drawn) [Compound 17, 2-{[2-({4-[1-({1-[2-(2,6-dioxopiperidin-3-yl)-1,3-dioxo-2,3-dihydro-1H-isoindol-5-yl]piperidin-4-yl}methyl)piperidin-4-yl]-2-methoxy-5-methylphenyl}amino)-5-(trifluoromethyl)pyrimidin-4-yl]amino}-N-methylbenzamide]: in data set [6], the DC50 came out at 23 nM and the maximal degradation (Dmax) was 77%.

With `CNC(=O)c1ccccc1Nc1nc(Nc2cc(C)c(C3CCN(CC4CN(c5ccc6c(c5)C(=O)N(C5CCC(=O)NC5=O)C6=O)C4)CC3)cc2OC(C)C)ncc1C(F)(F)F` (stereo not drawn) [Compound 18, 2-{[2-({4-[1-({1-[2-(2,6-dioxopiperidin-3-yl)-1,3-dioxo-2,3-dihydro-1H-isoindol-5-yl]azetidin-3-yl}methyl)piperidin-4-yl]-5-methyl-2-(propan-2-yloxy)phenyl}amino)-5-(trifluoromethyl)pyrimidin-4-yl]amino}-N-methylbenzamide], in data set [6], the DC50 was 71 nM and the greatest degradation seen (Dmax) turned out to be 68%.

For `CNC(=O)c1ccccc1Nc1nc(Nc2cc(C)c(C3CCN(CC4CCN(c5ccc6c(c5)C(=O)N(C5CCC(=O)NC5=O)C6=O)CC4)CC3)cc2OC(C)C)ncc1C(F)(F)F` (stereo not drawn) [Compound 19, 2-{[2-({4-[1-({1-[2-(2,6-dioxopiperidin-3-yl)-1,3-dioxo-2,3-dihydro-1H-isoindol-5-yl]piperidin-4-yl}methyl)piperidin-4-yl]-5-methyl-2-(propan-2-yloxy)phenyl}amino)-5-(trifluoromethyl)pyrimidin-4-yl]amino}-N-methylbenzamide], in data set [6], the DC50 was determined as 114 nM and the Dmax was determined as 55%.

Turning to `CCc1cc2c(cc1C#CCCCN1CCC(c3ccc4c(c3)CN(C3CCC(=O)NC3=O)C4=O)CC1)C(C)(C)c1[nH]c3cc(C#N)ccc3c1C2=O` (stereo not drawn) [Compound 22], in data set [6], the 50% degradation concentration (DC50) worked out at 6 nM and the maximal degradation (Dmax) amounted to 82%.

`CCc1cc2c(cc1N1CC(CN3CCC(c4ccc5c(c4)CN(C4CCC(=O)NC4=O)C5=O)CC3)C1)C(C)(C)c1[nH]c3cc(C#N)ccc3c1C2=O` (stereo not drawn) [Compound 23]: in data set [6], the DC50 came to 95 nM and the Dmax amounted to 63%.

Consider `COc1cc(CN2CCC(O)(c3ccc4c(c3)CN(C3CCC(=O)NC3=O)C4=O)CC2)c(C)cc1Nc1ncc(Cl)c(Nc2ccccc2S(=O)(=O)C(C)C)n1` (stereo not drawn) [Compound 26, 3-(5-(1-(4-((5-chloro-4-((2-(isopropylsulfonyl)phenyl)amino)pyrimidin-2-yl)amino)-5-methoxy-2-methylbenzyl)-4-hydroxypiperidin-4-yl)-1-oxoisoindolin-2-yl)piperidine-2,6-dione], for which, in data set [6], the half-maximal degradation concentration (DC50) was found to be 147 nM and the Dmax was found to be 62%.

The values are drawn from patent publication US20240336643A1, “BIFUNCTIONAL COMPOUNDS THAT DEGRADE ALK AND USES THEREOF” (DANA-FARBER CANCER INSTITUTE, INC., priority 2021, published 2024).
